Reference: PubChem BioAssay (NCI)
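Briefly, cells in 96-well plates were exposed to five compound concentrations for 48 h, and endpoints were estimated by linear interpolation. GI50 is the concentration that inhibits growth by half. TGI is the concentration that stops growth completely.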

What was measured:
Assay in all cases: inhibition of tumour cell growth, NCI panel, 48 h
[1] = test system: U251 CNS
[2] = test system: HS 578T breast
[3] = test system: HCT-116 colon
[4] = test system: HT29 colon
[5] = test system: SNB-75 CNS
[6] = test system: RXF 393 renal
[7] = test system: NCI/ADR-RES ovarian
[8] = test system: UO-31 renal
[9] = test system: K-562 leukemia
[10] = test system: A549 NSCLC
[11] = test system: HOP-92 NSCLC
[12] = test system: MDA-N
[13] = test system: CCRF-CEM leukemia
[14] = test system: UACC-257 melanoma
[15] = test system: SF-268 CNS
[16] = test system: BT-549 breast
[17] = test system: EKVX NSCLC
[18] = test system: MDA-MB-231 breast
[19] = test system: SN12C renal
[20] = test system: OVCAR-4 ovarian
[21] = test system: SF-295 CNS
[22] = test system: SK-MEL-2 melanoma
[23] = test system: SK-OV-3 ovarian
[24] = test system: OVCAR-3 ovarian
[25] = test system: SNB-19 CNS
[26] = test system: HCT-15 colon
[27] = test system: ACHN renal
[28] = test system: NCI-H23 lung
[29] = test system: OVCAR-8 ovarian
[30] = test system: NCI-H460 lung
[31] = test system: NCI-H522 lung
[32] = test system: UACC-62 melanoma
[33] = test system: DU-145 prostate
[34] = test system: OVCAR-5 ovarian
[35] = test system: MOLT-4 leukemia
[36] = test system: IGROV1 ovarian
[37] = test system: MDA-MB-435
[38] = test system: 786-0 renal
[39] = test system: SF-539 CNS
[40] = test system: M14 melanoma
[41] = test system: TK-10 renal
[42] = test system: KM12 colon
[43] = test system: SR leukemia
[44] = test system: NCI-H226 lung
[45] = test system: CAKI-1 renal
[46] = test system: SW-620 colon
[47] = test system: SK-MEL-28 melanoma
[48] = test system: HOP-62 NSCLC
[49] = test system: A498 renal
[50] = test system: COLO 205 colon
[51] = test system: HCC-2998 colon
[52] = test system: SK-MEL-5 melanoma
[53] = test system: PC-3 prostate
[54] = test system: T-47D breast
[55] = test system: RPMI-8226 leukemia
[56] = test system: MCF7 breast
[57] = test system: LOX IMVI melanoma
[58] = test system: MALME-3M melanoma
[59] = test system: HL-60(TB) leukemia

CCOC(=O)c1c(-c2ccccc2)c(C)cn1C
TGI [1]: > 10 µM | TGI [2]: > 10 µM | TGI [3]: > 10 µM | TGI [4]: > 10 µM | TGI [5]: > 10 µM | TGI [6]: > 10 µM | TGI [7]: > 10 µM | TGI [8]: > 10 µM | TGI [9]: > 10 µM | TGI [10]: > 10 µM | TGI [11]: > 10 µM | TGI [12]: > 10 µM | TGI [13]: > 10 µM | TGI [14]: > 10 µM | TGI [15]: > 10 µM | TGI [16]: > 10 µM | TGI [17]: > 10 µM | TGI [18]: 0.772 µM | TGI [19]: > 10 µM | TGI [20]: > 10 µM | TGI [21]: > 10 µM | TGI [22]: > 10 µM | TGI [23]: > 10 µM | TGI [24]: > 10 µM | TGI [25]: > 10 µM | TGI [26]: > 10 µM | TGI [27]: > 10 µM | TGI [28]: > 10 µM | TGI [29]: > 10 µM | TGI [30]: > 10 µM | TGI [31]: > 10 µM | TGI [32]: > 10 µM | TGI [33]: > 10 µM | TGI [34]: > 10 µM | TGI [35]: > 10 µM | TGI [36]: > 10 µM | TGI [37]: > 10 µM | TGI [38]: > 10 µM | TGI [39]: > 10 µM | TGI [40]: > 10 µM | TGI [41]: > 10 µM | TGI [42]: > 10 µM | TGI [43]: > 10 µM | TGI [44]: > 10 µM

CNCc1cccc2c1OCCOCCOCCC(C)S(=O)(=O)c1ccc(cc1)-c1cnc(N)c(n1)C(=O)N2 (stereo not given)
GI50 [45]: 0.365 µM | TGI [45]: 2.22 µM | GI50 [1]: 1.15 µM | TGI [1]: 3.62 µM | GI50 [2]: 0.602 µM | TGI [2]: 3.09 µM | GI50 [3]: 1.18 µM | TGI [3]: 3.35 µM | GI50 [4]: 1.44 µM | TGI [4]: 8.99 µM | GI50 [46]: 2.13 µM | TGI [46]: 10.7 µM | GI50 [5]: 0.119 µM | TGI [5]: 1.59 µM | GI50 [6]: 0.175 µM | TGI [6]: 1.6 µM | GI50 [7]: 5.31 µM | TGI [7]: 29.1 µM | GI50 [8]: 0.623 µM | TGI [8]: 2.09 µM | GI50 [9]: 1.5 µM | TGI [9]: 10.4 µM | GI50 [10]: 1.09 µM | TGI [10]: 6.83 µM | GI50 [11]: 11.5 µM | TGI [11]: 25 µM | GI50 [13]: 0.67 µM | TGI [13]: 7.2 µM | GI50 [14]: 1.91 µM | TGI [14]: 4.55 µM | GI50 [15]: 1.18 µM | TGI [15]: 3.33 µM | GI50 [47]: 1.77 µM | TGI [47]: 3.37 µM | GI50 [16]: 1.53 µM | TGI [16]: 5.23 µM | GI50 [17]: 4.46 µM | TGI [17]: 18.6 µM | GI50 [18]: 2.34 µM | TGI [18]: 5.5 µM | GI50 [19]: 1.24 µM | TGI [19]: 3.14 µM | GI50 [20]: 1.32 µM | TGI [20]: 4.32 µM | GI50 [21]: 2.84 µM | TGI [21]: 9.07 µM | GI50 [22]: 2.37 µM | TGI [22]: 6.36 µM | GI50 [48]: 1.14 µM | TGI [48]: 4.82 µM | GI50 [49]: 0.139 µM | TGI [49]: 2.14 µM | GI50 [23]: 0.525 µM | TGI [23]: 2.87 µM | GI50 [24]: 1.16 µM | TGI [24]: 2.59 µM | GI50 [25]: 2.5 µM | TGI [25]: 5.52 µM | GI50 [50]: 0.564 µM | TGI [50]: 5.25 µM | GI50 [26]: 1.11 µM | TGI [26]: 6.2 µM | GI50 [27]: 1.3 µM | TGI [27]: 2.82 µM | GI50 [28]: 3.71 µM | TGI [28]: 18.9 µM | GI50 [29]: 1.78 µM | TGI [29]: 7.9 µM | GI50 [30]: 1.12 µM | TGI [30]: 2.73 µM | GI50 [31]: 1.23 µM | TGI [31]: 3.25 µM | GI50 [51]: 4.53 µM | TGI [51]: 17.2 µM | GI50 [32]: 1.67 µM | TGI [32]: 3.3 µM | GI50 [52]: 2.05 µM | TGI [52]: 4.58 µM | GI50 [53]: 1.49 µM | TGI [53]: 17.9 µM | GI50 [33]: 1.25 µM | TGI [33]: 3.41 µM | GI50 [34]: 3.82 µM | TGI [34]: 11.4 µM | GI50 [35]: 1.3 µM | TGI [35]: 10.3 µM | GI50 [36]: 0.659 µM | TGI [36]: 4.78 µM | GI50 [37]: 1.57 µM | TGI [37]: 3.3 µM | GI50 [38]: 0.516 µM | TGI [38]: 2.06 µM | GI50 [39]: 1.28 µM | TGI [39]: 2.56 µM | GI50 [54]: 3.62 µM | TGI [54]: 18.7 µM | GI50 [55]: 2.05 µM | TGI [55]: 5.12 µM | GI50 [56]: 1.28 µM | TGI [56]: 14.6 µM | GI50 [40]: 1.27 µM | TGI [40]: 3.03 µM | GI50 [57]: 1.81 µM | TGI [57]: 5.41 µM | GI50 [58]: 1.59 µM | TGI [58]: 3.13 µM | GI50 [41]: 1.37 µM | TGI [41]: 8.25 µM | GI50 [42]: 1.69 µM | TGI [42]: 6.78 µM | GI50 [43]: 0.0861 µM | TGI [43]: 4.71 µM | GI50 [59]: 1.81 µM | TGI [59]: 3.83 µM | GI50 [44]: 1.98 µM | TGI [44]: 5.46 µM
